Measured values as given in patent publication US20030180777A1, “Rapid identification of transcriptional regulatory domains” (priority 2002, published 2003).

Assays:
Format in all cases: cell-based
P2X7 [1] = biological target: T1, P2X7 (Mus musculus, UniProt Q9Z1M0); test: BzATP-induced EtBr uptake in Neuro-2A cells by FACS
T1 construct: mouse Neuro-2A cells (expressing P2X7); endogenous in cells; host or cells: mouse Neuro-2A cells
T1 sequence (Q9Z1M0 1-595): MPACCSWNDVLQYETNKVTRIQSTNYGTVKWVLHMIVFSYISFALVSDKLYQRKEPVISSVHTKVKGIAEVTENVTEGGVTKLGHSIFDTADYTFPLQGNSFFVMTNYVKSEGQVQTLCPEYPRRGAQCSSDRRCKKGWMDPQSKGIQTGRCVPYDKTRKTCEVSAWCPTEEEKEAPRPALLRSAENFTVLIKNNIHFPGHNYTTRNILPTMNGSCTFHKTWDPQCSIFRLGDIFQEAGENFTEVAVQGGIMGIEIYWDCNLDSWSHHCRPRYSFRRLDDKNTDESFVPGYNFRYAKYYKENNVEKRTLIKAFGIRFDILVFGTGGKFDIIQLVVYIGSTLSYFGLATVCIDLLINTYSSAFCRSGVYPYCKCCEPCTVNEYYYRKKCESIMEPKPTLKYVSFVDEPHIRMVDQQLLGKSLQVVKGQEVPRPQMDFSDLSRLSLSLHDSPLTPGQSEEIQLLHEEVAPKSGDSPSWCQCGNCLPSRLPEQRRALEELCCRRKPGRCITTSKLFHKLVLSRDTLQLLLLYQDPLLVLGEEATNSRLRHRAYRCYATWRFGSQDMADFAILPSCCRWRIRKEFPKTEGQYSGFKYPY
Procedure: To test the suitability of the P2X7 gene as a reporter for high-throughput screening for repression domains, mouse Neuro-2A cells (expressing P2X7) were transiently transfected with a plasmid expressing a zinc finger DNA-binding domain targeted to the P2X7 gene (ZFP #5493) linked to a KOX1 repression domain. Control Neuro-2A cells were transfected with a vector lacking both library sequences and ZFP-encoding sequences (i.e., empty vector). Cells were treated for 10 minutes with different concentrations of BzATP (ranging from 0 to 1 mM), and EtBr was then added to a final concentration of 10 μM. After 20 minutes, cells were harvested by centrifugation, washed in PBS and analyzed by FACS.

P2X7 [2] = biological target: T1, P2X7; test: BzATP-induced death of Neuro-2A cells
Procedure: To test this selection method, Neuro-2A cells were transiently transfected with empty vector (see Example 3 supra) or with a plasmid expressing a KOX1 repressor domain linked to the P2X7-targeted zinc finger binding domain ZFP #5493. 48 hours after transfection, cells were detached from the plate with Trypsin-EDTA, collected by centrifugation and resuspended in HKS assay buffer (125 mM KC1, 1 mM EDTA, 5 mM glucose, 20 mM HEPES, pH 7.4 adjusted with KOH). Resuspended cells were mixed with BzATP (final concentrations ranging from 0 to 1 mM) and plated onto 6 well plates (1×10^5 cells/well in 1 ml HKS). After a 2h incubation at 37° C. in a cell incubator, cells were washed with PBS, and growth medium (minimal essential medium with Earle's salts and non-essential amino acids, adjusted to contain 2 mM L-glutamine, 1.5 g/L Na bicarbonate, 1.0 mM Na pyruvate and 10% fetal bovine serum) was added to plates.

P2X7 [3] = biological target: T1, P2X7; test: BzATP-induced YO-PRO-1 uptake in Neuro-2A cells by flow cytometry; settings: 0.2 mM BzATP, FIG. 1 left panel
Procedure: ZFP/KOX-1-expressing cells were also assayed for P2X7 activity by measuring their ability to take up the DNA-binding dye YO-PRO-1, as follows. Seven days after the initial BzATP treatment, pools of clones containing 2-5×10^5 cells were incubated with 0.2 mM BzATP for 10 minutes in HKS Buffer (125 mM KCl, 1 mM EDTA, 5 mM glucose, 20 mM HEPES-KOH, pH 7.4). YO-PRO-1 (Molecular Probes, Inc., Eugene, Oreg.) was added to a final concentration of 5 μM. After an additional 25 min incubation in the presence of the dye, the cells were washed with PBS, collected by centrifugation, resuspended in PBS, and analyzed by FACS on a Beckman-Coulter EPICS XL flow cytometer.

benzoylbenzoyl ATP [BzATP]
EtBr accumulation at higher concentrations of BzATP (P2X7 [1]; BzATP above 0.04 mM, range tested up to 1 mM): induced significant accumulation of EtBr | EtBr uptake at low concentrations of BzATP (P2X7 [1]; BzATP up to 0.04 mM): did not induce significant uptake of EtBr | cell death at relatively low concentrations of BzATP (P2X7 [2]; BzATP >20 μM, cells transfected with either empty vector or the ZFP-KOX construct): some death of cells | survival of cells transfected with empty vector (P2X7 [2]; BzATP concentrations >100 μM): almost no survival | YO-PRO-1 uptake by control uninfected cells in the presence of BzATP (P2X7 [3]): substantial amounts of YO-PRO-1
